Test results as given in PubChem BioAssay (NCI).
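GI50 is the concentration that inhibits growth by half. TGI denotes the concentration required for complete inhibition of growth.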

Columns and labels:
Assay in all cases: growth of human tumour cells (NCI), 384-well format
SNB-19 CNS = tested on: SNB-19 CNS
PC-3 prostate = tested on: PC-3 prostate
NCI-H23 lung = tested on: NCI-H23 lung
UACC-62 melanoma = tested on: UACC-62 melanoma
NCI/ADR-RES ovarian = tested on: NCI/ADR-RES ovarian
MDA-MB-435 melanoma = tested on: MDA-MB-435 melanoma
RPMI-8226 leukemia = tested on: RPMI-8226 leukemia
HS 578T breast = tested on: HS 578T breast
HL-60(TB) leukemia = tested on: HL-60(TB) leukemia
COLO 205 colon = tested on: COLO 205 colon
SK-OV-3 ovarian = tested on: SK-OV-3 ovarian
CAKI-1 renal = tested on: CAKI-1 renal
EKVX NSCLC = tested on: EKVX NSCLC
SK-MEL-28 melanoma = tested on: SK-MEL-28 melanoma
IGROV1 ovarian = tested on: IGROV1 ovarian
MCF7 breast = tested on: MCF7 breast
SK-MEL-2 melanoma = tested on: SK-MEL-2 melanoma
KM12 colon = tested on: KM12 colon
RXF 393 renal = tested on: RXF 393 renal
NCI-H460 NSCLC = tested on: NCI-H460 NSCLC
SF-295 CNS = tested on: SF-295 CNS
K-562 leukemia = tested on: K-562 leukemia
CCRF-CEM leukemia = tested on: CCRF-CEM leukemia
SK-MEL-5 melanoma = tested on: SK-MEL-5 melanoma
MDA-MB-468 breast = tested on: MDA-MB-468 breast
A549 NSCLC = tested on: A549 NSCLC
M14 melanoma = tested on: M14 melanoma
OVCAR-4 ovarian = tested on: OVCAR-4 ovarian

SMILES: COc1cc(OC)c(C(=O)C(CN(C)C)CN(C)C)cc1OC
- GI50 (SNB-19 CNS): 14.4 µM
- TGI (SNB-19 CNS): 27.7 µM
- GI50 (PC-3 prostate): 3 µM
- TGI (PC-3 prostate): 7.62 µM
- GI50 (NCI-H23 lung): 2.17 µM
- TGI (NCI-H23 lung): 4.18 µM
- GI50 (UACC-62 melanoma): 2.06 µM
- TGI (UACC-62 melanoma): 4.4 µM
- GI50 (NCI/ADR-RES ovarian): 2.12 µM
- TGI (NCI/ADR-RES ovarian): 4.11 µM
- GI50 (MDA-MB-435 melanoma): 3.27 µM
- TGI (MDA-MB-435 melanoma): 8.94 µM
- GI50 (RPMI-8226 leukemia): 0.419 µM
- TGI (RPMI-8226 leukemia): 1.14 µM
- GI50 (HS 578T breast): 7.53 µM
- TGI (HS 578T breast): 19.8 µM
- GI50 (HL-60(TB) leukemia): 0.146 µM
- TGI (HL-60(TB) leukemia): 0.279 µM
- GI50 (COLO 205 colon): 0.696 µM
- TGI (COLO 205 colon): 1.96 µM
- GI50 (SK-OV-3 ovarian): 16.9 µM
- TGI (SK-OV-3 ovarian): 30.7 µM
- GI50 (CAKI-1 renal): 1.02 µM
- TGI (CAKI-1 renal): 2.22 µM
- GI50 (EKVX NSCLC): 10.4 µM
- TGI (EKVX NSCLC): 22.3 µM
- GI50 (SK-MEL-28 melanoma): 3.32 µM
- TGI (SK-MEL-28 melanoma): 7.76 µM
- GI50 (IGROV1 ovarian): 2.06 µM
- TGI (IGROV1 ovarian): 4.43 µM
- GI50 (MCF7 breast): 1.83 µM
- TGI (MCF7 breast): 3.77 µM
- GI50 (SK-MEL-2 melanoma): 1.7 µM
- TGI (SK-MEL-2 melanoma): 3.67 µM
- GI50 (KM12 colon): 3.64 µM
- TGI (KM12 colon): 9.17 µM
- GI50 (RXF 393 renal): 1.92 µM
- TGI (RXF 393 renal): 3.44 µM
- GI50 (NCI-H460 NSCLC): 2.75 µM
- TGI (NCI-H460 NSCLC): 6.41 µM
- GI50 (SF-295 CNS): 19.2 µM
- TGI (SF-295 CNS): 39.3 µM
- GI50 (K-562 leukemia): 6 µM
- TGI (K-562 leukemia): 18.1 µM
- GI50 (CCRF-CEM leukemia): 0.369 µM
- TGI (CCRF-CEM leukemia): 1.38 µM
- GI50 (SK-MEL-5 melanoma): 5.64 µM
- TGI (SK-MEL-5 melanoma): 18.4 µM
- GI50 (MDA-MB-468 breast): 0.317 µM
- TGI (MDA-MB-468 breast): 0.697 µM
- GI50 (A549 NSCLC): 14.1 µM
- TGI (A549 NSCLC): 27.6 µM
- GI50 (M14 melanoma): 2.16 µM
- TGI (M14 melanoma): 4.3 µM
- GI50 (OVCAR-4 ovarian): 1.81 µM
